# US12485117B2, “Compositions and methods for activating signaling through the CB1 cannabinoid receptor for treating and preventing diseases and disorders characterized by abnormal cellular accumulation of sphingolipids such as sphingomyelin” (Wylder Nation Foundation, priority 2018, dated 2025)
# What was measured:
# wt and ASMko mice = experiment: Acute toxicity: H&E staining of brain and liver; type: in vivo, mouse; conditions: any of the doses
# Protocol: FIGS. 27A-27C show H&E staining in wt and ASMko mice treated or not treated with PF-04457845.
# (§1) We divided wt and ASMko mice of 4.5 months of age in six experimental groups: ASMko control (n=3), ASMko low dose (n=3), ASMko intermediate dose (n=3), ASMko high dose (n=3), wt control (n=3), wt high dose (n=3). PF-04457845, provided as powder, was dissolved in 0.9% NaCl and administered to mice through oral gavage. Vehicle groups received same volume of 0.9% NaCl.
# Brain and liver tissue was stained with H&E to evaluate histopathological features.
# In the liver foam cells showing white vacuoles indicative of lipid accumulation were evident in vehicle treated ASMko mice compared to wt (FIG. 28).
# wt or ASMko mice = experiment: Acute toxicity: in-life observations for 48 hours after a single oral dose; type: in vivo, mouse; conditions: 48 hours after single oral dose, any of the doses (0.1, 1, 5 mg/kg)
# Protocol: To that end, a toxicity assessment of oral PF-04457845 treatment in AMSko mice was performed to determine the toxicity in liver and brain of single doses of PF-04457845 administered by oral gavage at different concentration.
# as §1
# Doses have been calculated taking into account that used in the study conducted in healthy humans (Li et al., Br J Clin Pharmacol 2011, 73:706-716). […] Estimating an average weight of 60 kg for an adult human the daily dose equals to 0.0083 mg/kg. This dose was very similar to that used in our first 8 week-long treatment with PF-04457845 in ASMko mice, which according to the formulas to calculate equivalence between humans and mice (Nair and Jacob J Basic Clin Pharma 2016, 7:27-31) corresponded to a daily HED dose of 0.0072 mg/kg. For this toxicity study we agreed to take into account the human dose: 0.0083 mg/kg. Formula conversion to mouse dose: HED (mg/kg)=Mouse dose (mg/kg)×mouseKm/Human Km).
structure (smiles),measurement,setting,value
O=C(Nc1cccnn1)N1CCC(=Cc2cccc(Oc3ccc(C(F)(F)F)cn3)c2)CC1 [PF-04457845],H&E staining of liver (foam cell pattern),wt and ASMko mice; ASMko mice,did not significantly alter this pattern
same,"H&E staining of hippocampus, cerebellum and cortex",wt and ASMko mice; wt and ASMko mice,did not cause significant changes in H&E staining
same,"adverse effects (abnormal behavior, weight loss, motor anomalies, skin alterations)",wt or ASMko mice,No evident adverse effects
